# Results reported in patent US12303471B2, “Methods of treatment of temozolomide-resistant glioma using coenzyme Q10” (BPGbio, Inc., priority 2015, dated 2025).
# Legend:
# [1] = tested on: Rat C6 glioma cells; experiment: Rat model of glioma (C6 glioma cell implantation); assay type: in vivo, Sprague-Dawley rats
# Protocol: The C6 glioma cells develop into a glioma-like tumor. The rats bearing C6 gliomas were treated twice per day with 5, 10, 25 or 50 mg/kg Coenzyme Q10 by intraperitoneal or subcutaneous injection. Coenzyme Q10 treatment was initiated 1 day (n=3), 4 days (n=14), or 8 days (n=3) after implantation of C6 glioma cells. Coenzyme Q10 treatment was continued twice daily until the rat died, or until 34 days after implantation of glioma cells. […] Four of the rats treated with Coenzyme Q10 survived for at least 50 days after implantation of the C6 glioma cells, while none of the untreated control rats survived more than 15 days after implantation. In fact, two of the rats treated with Coenzyme Q10 survived more than 100 days post implantation (see below and FIGS. 9 and 10). Of the four rats that were alive at Day 50, 1 received 10 mg/kg Coenzyme Q10 starting 4 days after implantation, and 3 received 50 mg/kg Coenzyme Q10 starting 4 days or 8 days after implantation.
# Enlarged ventricles (hydrocephalus) were present 27 days post C6 implantation (FIG. 9A). At 34 days post-implantation, enlarged ventricles were stilled observed. In addition, there was a complex mass in the tumor area which was not clearly growing (FIG. 9B). Coenzyme Q10 treatment was discontinued at Day 34. […] At 27 days post C6 implantation, a complex mass was visible, but it was unclear if this mass represented a tumor or a scar (FIG. 10A). At 34 days post C6 implantation, a scar was visible at the site of implantation and improvement in the overall condition of the rat was observed that was not consistent with tumor growth (FIG. 10B).
# [2] = Coenzyme Q10 plasma levels in rats; assay type: in vivo; details: four days after treatment initiated
# Protocol: Coenzyme Q10 plasma levels were measured in the rats bearing C6 gliomas four days after Coenzyme Q10 treatment was initiated.
# [3] = tested on: MIA PaCa-2; experiment: Oxygen consumption rate during succinate-fueled mitochondrial respiration, permeabilized cells, Seahorse XF96; assay type: cell-based; details: 100, 137 or 274 μM Coenzyme Q10, State 3, State 4o, State 3u, FIG. 1
# Protocol: (§1) Oxygen consumption rate (OCR) was measured during various states of succinate-fueled mitochondrial respiration in the triple-negative breast cancer cell line MDA-MB231 and the mutant K-Ras-driven pancreatic cancer cell line MIA PaCa-2 treated with different concentrations of Coenzyme Q10. […] The assays were performed in permeabilized adherent cells using the Seahorse XF96 Analyzer. Cells were permeabilized with XF PMP reagent and put into mitochondrial State 3 by replacing the growth media with Mitochondrial Assay Solution (containing mannitol, sucrose, KH2PO4, MgCl2, HEPES, and EGTA) supplemented with succinate, rotenone (to block reverse electron transfer back to Complex I), and ADP. OCR was measured in State 3, and then again upon sequential injection of oligomycin and FCCP to induce State 4o (o=oligomycin) and State 3u (u=uncoupled).
# [4] = tested on: MDA-MB231; experiment: as above; assay type: cell-based; details: 100, 155 or 310 μM Coenzyme Q10, State 3, State 4o, State 3u, FIG. 1
# Protocol: as §1
# [5] = tested on: human U373 cells (TMZ-sensitive and TMZ-resistant GBM cells); experiment: TMZ-sensitive and TMZ-resistant U373 glioblastoma tumors in mice; assay type: in vivo; details: intravenous single daily dose of 4% Coenzyme Q10, 50 mg/kg/day
# Description: Equal numbers (1×10^7) of human U373 cells left untreated and thus sensitive (TMZ-sensitive) versus TMZ long-term treated (TMZ-resistant) GBM cells (see Calve et al., 2010, Neoplasia 12(9): 727-739, which is incorporated by reference herein in its entirety) are suspended in MATRIGEL® and injected into mice. Tumors are allowed to develop, and treatment is not initiated unless tumors are present.
# Mice having tumors are randomized into 4 groups of 30 mice each as follows: • i. Group 1—No treatment, TMZ-sensitive • ii. Group 2—No treatment, TMZ-resistant • iii. Group 3—Intravenous single daily dose of 4% Coenzyme Q10, 50 mg/kg/day, TMZ-sensitive • iv. Group 4—Intravenous single daily dose of 4% Coenzyme Q10, 50 mg/kg/day, TMZ-resistant
# Animals are observed for viability and tumor growth is monitored. Animal survival results are collected through day 400.
# [6] = tested on: TMZ-resistant glioblastoma; experiment: Coenzyme Q10 in TMZ-resistant glioblastoma in humans; assay type: in vivo; details: 4% coenzyme Q10 nanosuspension, 24-, 48- or 96-hour infusion, monotherapy
# Protocol: The efficacy of Coenzyme Q10 in treating TMZ-resistant glioblastoma is evaluated in humans using Coenzyme Q10 monotherapy and Coenzyme Q10 in combination with chemotherapy. The Coenzyme Q10 is provided as a 4% coenzyme Q10 nanosuspension formulation as described in WO 2011/112900, the entire contents of which are expressly incorporated herein by reference. The study is designed with dosing schedules of a 24-hour infusion, 48-hour infusion, or 96-hour continuous infusion. This extended dosage schedule is intended to decrease Coenzyme Q10 Cmax values and maintain steady-state levels. Patient survival time and glioblastoma tumor status before, during, and after Coenzyme Q10 treatment is evaluated.
# [7] = tested on: triple-negative breast cancer cell line MDA-MB231; experiment: Coenzyme Q10 sensitivity (IC50/IC90) of MDA-MB231 cells; assay type: cell-based; details: Homo sapiens, MDA-MB-231
# Protocol: as §1
# [8] = tested on: mutant K-Ras-driven pancreatic cancer cell line MIA PaCa-2; experiment: Coenzyme Q10 sensitivity (IC50/IC90) of MIA PaCa-2 cells; assay type: cell-based; details: Homo sapiens
# Protocol: as §1
# [9] = tested on: MDA-MB231 cells; experiment: CellTiter-Fluor viability assay, co-treatment with Coenzyme Q10 and Complex II inhibitors; details: 5 μM Atpenin A5 with 0-1600 μM Coenzyme Q10, 72 h; FIG. 4
# Protocol: To assess whether the effects of Coenzyme Q10 on Complex II-mediated respiration are functionally linked to Coenzyme Q10-induced cytotoxicity, MDA-MB231 cells were co-treated with two inhibitors of Complex II (atpenin A5 and malonate) which act at separate sites in Complex II.
# The viability of MDA-MB231 cells treated with atpenin A5 and Coenzyme Q10 or malonate and Coenzyme Q10 was determined by a CellTiter-Fluor viability assay (Promega, Cat. No. G6080). Briefly, cells were co-treated with 0, 25, 50, 100, 200, 400, 800 or 1600 μM Coenzyme Q10 and either 5 μM Atpenin A5 or 5 mM malonic acid for 72 h, and then assayed per the manufacture's protocol.
# [10] = tested on: MDA-MB231 cells; experiment: Propidium iodide (PI) and Annexin V flow cytometry cell death assay; assay type: cell-based; details: malonate 5 mM with Coenzyme Q10 155 μM or 310 μM, 72 hours; FIG. 5
# Protocol: MDA-MB231 cells were treated with Coenzyme Q10 and/or malonate as shown below: • 1. Untreated • 2. Malonate (5 mM) • 3.
# At 72 hours post treatment, cell culture supernatant (containing detached apoptotic cells) and adherent cells were harvested by trypsinization, centrifuged at 500 g for 5 minutes, and the resulting pellets were washed in staining media (PBS, 0.5% FBS). Cells were co-stained with FITC conjugated anti-Annexin-V (1:100, Molecular Probes) to detect PS exposure on the outer membrane surface and Propidium Iodine (PI, 1:2500, Molecular Probes) in 200 μL binding buffer (Molecular Probes). After a 15 minute incubation in the dark, the percentage of Annexin V+/PI+ cells was analyzed using an Accuri C6 Flow Cytometer (BD Biosciences) and samples were run within one hour after staining.
# The cells were rated as follows: • 1. PI-negative and Annexin V-negative: viable • 2. PI-negative and Annexin V-positive: early apoptosis • 3. PI-positive and Annexin V-positive: late apoptosis • 4. PI-positive and Annexin V-negative: dead.
# [11] = tested on: recurrent high-grade gliomas; details: patients with recurrent high-grade gliomas; cited from earlier work
molecule,measurement,setting,value
"COC1=C(OC)C(=O)C(CC=C(C)CCC=C(C)CCC=C(C)CCC=C(C)CCC=C(C)CCC=C(C)CCC=C(C)CCC=C(C)CCC=C(C)CCC=C(C)C)=C(C)C1=O [Coenzyme Q10, 2-(3,7,11,15,19,23,27,31,35,39-decamethyltetraconta-2,6,10,14,18,22,26,30,34,38-decaenyl)-5,6-dimethoxy-3-methyl-cyclohexa-2,5-diene-1,4-dione]","condition of surviving rat, coronal sections","[1]; 10 mg/kg twice daily i.p. from day 4, discontinued Day 34, 103 days post-implantation, FIG. 9C",appeared normal with possible scar tissue in the tumor area
same,rats alive at Day 50,"[1]; 10 mg/kg twice daily, starting 4 days after implantation",1
same,"condition of surviving rat, coronal sections","[1]; 50 mg/kg twice daily i.p. from day 4, 103 days after C6 implantation, FIG. 10C",clinically normal
same,rats alive at Day 50,"[1]; 50 mg/kg twice daily, starting 4 days or 8 days after implantation",3
same,rats that survived for at least 50 days after implantation of the C6 glioma cells,"[1]; 5, 10, 25 or 50 mg/kg twice per day intraperitoneal, n=20, no untreated control (n=33) survived more than 15 days",Four
same,rats that survived more than 100 days post implantation,"[1]; Coenzyme Q10 twice daily intraperitoneal, n=20",two
same,dose that resulted in the highest Coenzyme Q10 plasma levels,"[2]; 5, 10, 25 or 50 mg/kg twice daily intraperitoneal, FIG. 12",25 mg/kg
same,"Coenzyme Q10 plasma levels, intraperitoneal compared to subcutaneous injection","[2]; rats bearing C6 gliomas, 50 mg/kg twice daily, FIG. 11",significantly higher
same,succinate-fueled respiration (oxygen consumption rate),[3],significantly decreased by Coenzyme Q10 in a dose dependent manner
same,succinate-fueled respiration (oxygen consumption rate),[4],significantly decreased by Coenzyme Q10 in a dose dependent manner
same,glioblastoma tumor growth compared to control (untreated) animals,[5],significantly reduced glioblastoma tumor growth
same,survival compared to control (untreated) animals,[5]; through day 400,significantly increased survival
same,tumor growth relative to standard chemotherapy,[6],reduce tumor growth
same,IC50,[7],155 µM
same,IC90,[7],310 µM
same,IC50,[8],137 µM
same,IC90,[8],274 µM
COc1[nH]c(=O)c(C(=O)[C@@H](C)C[C@H](C)[C@@H](Cl)CCl)c(O)c1OC [atpenin A5],effect of co-treatment on Coenzyme Q10-induced cytotoxicity,[9],enhanced cytotoxicity
O=C(O)CC(=O)O [malonate],effect on Coenzyme Q10-induced cell death,[10],attenuated Coenzyme Q10-induced cell death
Bevacizumab: monoclonal antibody against vascular endothelial growth factor (VEGF),overall median survival,[11],improved overall median survival
same,response rates,[11],32-62%
